Eleven molecules from US12441762B2, “Hepatitis c virus NS3/4A protease inhibitors” (priority 2019, dated 2025) can be followed below.

Structures are written as SMILES.

Common to all, as to test: biochemical
For assay [1], the target named is T1, HCV NS3/4A protease D168A variant (Hepatitis C virus genotype 1a, UniProt P27958, C1185S/D1194A).
T1 construct: His-tag (cleaved yes); made in house; host or cells: Escherichia coli BL21(DE3), PET28a vector
It is filed as biochemical. In outline:
(§1)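 Inhibitors pre-incubated 1 h at room temperature with 2 nM NS3/4A protease (GT1a C159S or D168A) in 50 mM Tris, 5% glycerol, 10 mM DTT, 0.6 mM LDAO, 4% DMSO, pH 7.5. Km from global Michaelis-Menten fit of inner-filter-corrected initial velocities; three independent data sets per inhibitor and construct.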

The subject of assay [2] is HCV NS3/4A protease D168A variant. It is filed as biochemical, Hepatitis C virus. Conditions: for Fold Change of D168A Ki with respect to GT1a wild-type: Table S1, value in parentheses. Put shortly:
as §1

The target in assay [3] is T2, wild-type HCV NS3/4A protease (GT1a) (Hepatitis C virus genotype 1a, UniProt P27958, C1185S).
T2 construct: His-tag (cleaved yes); made in house; host or cells: Escherichia coli BL21(DE3), PET28a vector
It is filed as biochemical. In outline:
as §1

A further assay concerns the target HCV NS3/4A protease GT3 (Hepatitis C virus genotype 3a, UniProt Q81495).

T2 sequence (P27958 1027-1208 C1185S): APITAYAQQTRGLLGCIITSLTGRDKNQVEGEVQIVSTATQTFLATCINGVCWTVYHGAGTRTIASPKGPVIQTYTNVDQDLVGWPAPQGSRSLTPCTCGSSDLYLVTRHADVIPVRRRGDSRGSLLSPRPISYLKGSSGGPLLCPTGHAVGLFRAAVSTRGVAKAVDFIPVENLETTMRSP
T1 sequence (P27958 1027-1208 C1185S/D1194A): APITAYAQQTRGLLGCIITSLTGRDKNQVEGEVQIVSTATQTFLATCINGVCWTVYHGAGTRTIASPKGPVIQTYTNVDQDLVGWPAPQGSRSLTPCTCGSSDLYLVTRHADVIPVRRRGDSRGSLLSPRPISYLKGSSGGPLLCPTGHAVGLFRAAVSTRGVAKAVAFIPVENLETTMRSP
Chain of HCV NS3/4A protease GT3 (Q81495 1033-1214): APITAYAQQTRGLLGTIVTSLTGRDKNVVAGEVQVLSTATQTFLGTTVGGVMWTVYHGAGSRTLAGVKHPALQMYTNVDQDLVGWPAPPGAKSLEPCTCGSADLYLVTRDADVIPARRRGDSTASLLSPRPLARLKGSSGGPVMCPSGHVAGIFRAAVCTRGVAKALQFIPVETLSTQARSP
Chain of HCV NS3/4A protease GT3 (Q81495 1664-1717): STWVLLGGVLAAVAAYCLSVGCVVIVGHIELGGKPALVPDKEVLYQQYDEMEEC

Usually Ki stands for a measure of affinity in units of concentration, obtained from inhibition or displacement. Read a high Ki as weaker binding. Regarding `COc1ccc2nc(C)c(O[C@@H]3C[C@H]4C(=O)N[C@]5(C(=O)NS(=O)(=O)C6(C)CC6)C[C@H]5/C=C\CCCCC[C@H](NC(=O)[C@@H](NC(C)=O)C5CCCC5)C(=O)N4C3)nc2c1` [Inhibitor P4P5-3A, (2R,6S,13aS,14aR,16aS, Z)-6-((S)-2-acetamido-2-cyclopentylacetamido)-2-((7-methoxy-3-methylquinoxalin-2-yl)oxy)-N-((1-methylcyclopropyl)sulfonyl)-5,16-dioxo-1,2,3,6,7,8,9,10,11,13a,14,15,16,16a-tetradecahydrocyclopropa[e]pyrrolo[1,2-a][1,4]diazacyclopentadecine-14a(5H)-carboxamide], the results for the inhibitory constant (Ki) in assay [1] and in assay [3] were 87.3 nM and 2.23 ± 0.07 nM, respectively. Also, in assay [2], the “Fold Change of D168A Ki with respect to GT1a wild-type” value (“Fold Change of D168A Ki” below) was “(39) fold”. Also, in assay [2] (acetamide (3A) vs methyl carbamate (3B)), the “fold less potent than the methyl carbamate analog P4P5-3B” value was approximately 3 fold.
Consider `COC(=O)N[C@H](C(=O)N[C@H]1CCCCC/C=C\[C@@H]2C[C@@]2(C(=O)NS(=O)(=O)C2(C)CC2)NC(=O)[C@@H]2C[C@@H](Oc3nc4cc(OC)ccc4nc3C)CN2C1=O)C1CCCC1` [Inhibitor P4P5-3B, Methyl ((S)-1-cyclopentyl-2-(((2R,6S,13aS,14aR,16aS,Z)-2-((7-methoxy-3-methylquinoxalin-2-yl)oxy)-14a-(((1-methylcyclopropyl)sulfonyl)carbamoyl)-5,16-dioxo-1,2,3,5,6,7,8,9,10,11,13a,14,14a,15,16,16a-hexadecahydrocyclopropa[e]pyrrolo[1,2-a][1,4]diazacyclopentadecin-6-yl)amino)-2-oxoethyl)carbamate], for which the results for the Ki in assay [1] and in assay [3] were 31.6 ± 2.1 nM and 3.54 ± 0.13 nM, respectively. The “Fold Change of D168A Ki” value in assay [2] is given as “(9) fold”.
In the same order, the values of `CC[C@H](C)[C@H](NC(C)=O)C(=O)N[C@H]1CCCCC/C=C\[C@@H]2C[C@@]2(C(=O)NS(=O)(=O)C2(C)CC2)NC(=O)[C@@H]2C[C@@H](Oc3nc4cc(OC)ccc4nc3C)CN2C1=O` [Inhibitor P4P5-4, (2R,6S,13aS,14aR,16aS,Z)-6-((2S,3S)-2-acetamido-3-methylpentanamido)-2-((7-methoxy-3-methylquinoxalin-2-yl)oxy)-N-((1-methylcyclopropyl)sulfonyl)-5,16-dioxo-1,2,3,6,7,8,9,10,11,13a,14,15,16,16a-tetradecahydrocyclopropa[e]pyrrolo[1,2-a][1,4]diazacyclopentadecine-t4a(5H)-carboxamide] are 81 nM, 7.1 ± 0.24 nM and “(11) fold”.
Consider `COC(=O)NC1(C(=O)N[C@H]2CCCCC/C=C\[C@@H]3C[C@@]3(C(=O)NS(=O)(=O)C3(C)CC3)NC(=O)[C@@H]3C[C@@H](Oc4nc5cc(OC)ccc5nc4C)CN3C2=O)CCCC1` [Inhibitor P4P5-5, Methyl (1-(((2R,6S,13aS,14aR,16aS,Z)-2-((7-methoxy-3-methylquinoxalin-2-yl)oxy)-14a-(((1-methylcyclopropyl)sulfonyl)carbamoyl)-5,16-dioxo-1,2,3,5,6,7,8,9,10,11,13a,14,14a,15,16,16a-hexadecahydrocyclopropa[e]pyrrolo[1,2-a][1,4]diazacyclopentadecin-6-yl)carbamoyl)cyclopentyl)carbamate], for which the Ki in assay [1] came out at 931 ± 70 nM; in assay [3], 31 ± 2.74 nM. Further, the “fold loss in potency against D168A relative to WT” value in assay [2] was 30 fold. Further, the “Fold Change of D168A Ki” value in assay [2] is on record as “(30) fold”.
Consider `COC(=O)N[C@H](C(=O)N[C@H]1CCCCC/C=C\[C@@H]2C[C@@]2(C(=O)NS(=O)(=O)C2(C)CC2)NC(=O)[C@@H]2C[C@@H](Oc3nc4cc(OC)ccc4nc3C)CN2C1=O)C1CCCCC1` [Inhibitor P4P5-6, Methyl ((S)-1-cyclohexyl-2-(((2R,6S,13aS,14aR,16aS,Z)-2-((7-methoxy-3-methylquinoxalin-2-yl)oxy)-14a-(((1-methylcyclopropyl)sulfonyl)carbamoyl)-5,16-dioxo-1,2,3,5,6,7,8,9,10,11,13a,14,14a,15,16,16a-hexadecahydrocyclopropa[e]pyrrolo[1,2-a][1,4]diazacyclopentadecin-6-yl)amino)-2-oxoethyl)carbamate], for which the inhibition constant Ki in assay [1] turned out to be 9.68 ± 0.64 nM; in assay [3] it was 0.91 ± 0.38 nM. Besides, the “fold more potent than grazoprevir towards D168A” value in assay [1] (compared to grazoprevir) amounted to 5 fold. Also, the “Fold Change of D168A Ki” value in assay [2] is listed as “(11) fold”.
Turning to `CCC1(OC(=O)N[C@H]2CCCCC/C=C\[C@@H]3C[C@@]3(C(=O)NS(=O)(=O)C3(C)CC3)NC(=O)[C@@H]3C[C@@H](Oc4nc5cc(OC)ccc5nc4C)CN3C2=O)CCCC1` [NR01-97, 1-Ethylcyclopentyl ((2R,6S,13aS,14aR,16aS, Z)-2-((7-methoxy-3-methylquinoxalin-2-yl)oxy)-14a-(((1-methylcyclopropyl)sulfonyl)carbamoyl)-5,16-dioxo-1,2,3,5,6,7,8,9,10,11,13a,14,14a,15,16,16a-hexadecahydrocyclopropa[e]pyrrolo[1,2-a][1,4]diazacyclopentadecin-6-yl) carbamate], the Ki in assay [1] was determined as 21.7 ± 2.3 nM; in assay [3], 1.29 ± 0.05 nM. Further, the “fold increase in potency against D168A compared to the parent compound” value in assay [1] is reported as approximately 3 fold. Moreover, the “Fold Change of D168A Ki” value in assay [2] is listed as “(17) fold”.
With `COc1ccc2nc(C(F)(F)F)c(O[C@@H]3C[C@H]4C(=O)N[C@]5(C(=O)NS(=O)(=O)C6(C)CC6)C[C@H]5/C=C\CCCCC[C@H](NC(=O)O[C@@H](C)C(C)C)C(=O)N4C3)nc2c1` [NR01-101, (S)-3-Methylbutan-2-yl ((2R,6S,13aS,14aR,16aS,Z)-2-((7-methoxy-3-(trifluoromethyl)quinoxalin-2-yl)oxy)-14a-(((1-methylcyclopropyl)sulfonyl)carbamoyl)-5,16-dioxo-1,2,3,5,6,7,8,9,10,11,13a,14,14a,15,16,16a-hexadecahydrocyclopropa [e]pyrrolo[1,2-a][1,4]diazacyclopentadecin-6-yl)carbamate], the inhibition constant Ki in assay [1] was determined as 26.2 ± 2.3 nM; in assay [3], 6.1 ± 0.57 nM; at HCV NS3/4A protease GT3, 447 ± 25 nM.
In the same order, the values of `COc1ccc2nc(C)c(O[C@@H]3C[C@H]4C(=O)N[C@]5(C(=O)NS(=O)(=O)C6(C)CC6)C[C@H]5/C=C\CCCCC[C@H](NC(=O)O[C@H](C)C(F)(F)F)C(=O)N4C3)nc2c1` [NR01-145, (R)-1,1,1-Trifluoropropan-2-yl ((2R,6S,13aS,14aR,16aS,Z)-2-((7-methoxy-3-methylquinoxalin-2-yl)oxy)-14a-(((1-methylcyclopropyl)sulfonyl)carbamoyl)-5,16-dioxo-1,2,3,5,6,7,8,9,10,11,13a,14,14a,15,16,16a-hexadecahydrocyclopropa[e]pyrrolo[1,2-a][1,4]diazacyclopentadecin-6-yl)carbamate] are 8 ± 1 nM, 1.1 ± 0.1 nM and 122 ± 11 nM.
For `COc1ccc2nc(C)c(O[C@@H]3C[C@H]4C(=O)N[C@]5(C(=O)NS(=O)(=O)C6(C)CC6)C[C@H]5/C=C\CCCCC[C@H](NC(=O)OC5(C)CC5)C(=O)N4C3)nc2c1` [NR02-24, 1-Methylcyclopropyl ((2R,6S,13aS,14aR,16aS,Z)-2-((7-methoxy-3-methylquinoxalin-2-yl)oxy)-14a-(((1-methylcyclopropyl)sulfonyl)carbamoyl)-5,16-dioxo-1,2,3,5,6,7,8,9,10,11,13a,14,14a,15,16,16a-hexadecahydrocyclopropa[e]pyrrolo [1,2-a][1,4]diazacyclopentadecin-6-yl)carbamate], the Ki came to 27.9 ± 4.1 nM in assay [1] and 4.44 ± 0.3 nM in assay [3]. Besides, the “fold increase in potency against D168A compared to the parent compound” value in assay [1] is reported as approximately 2 fold. For the same molecule, the “Fold Change of D168A Ki” value in assay [2] was “(6) fold”.
For the molecule `COc1ccc2nc(C)c(O[C@@H]3C[C@H]4C(=O)N[C@]5(C(=O)NS(=O)(=O)C6(C)CC6)C[C@H]5/C=C\CCCCC[C@H](NC(=O)OC5(C)CCC5)C(=O)N4C3)nc2c1` [NR02-61, 1-Methylcyclobutyl ((2R,6S,13aS,14aR,16aS,Z)-2-((7-methoxy-3-methylquinoxalin-2-yl)oxy)-14a-(((1-methylcyclopropyl)sulfonyl)carbamoyl)-5,16-dioxo-1,2,3,5,6,7,8,9,10,11,13a,14,14a,15,16,16a-hexadecahydrocyclopropa[e]pyrrolo [1,2-a][1,4]diazacyclopentadecin-6-yl)carbamate], the inhibition constant Ki came to 46.4 ± 3.4 nM in assay [1] and 1.4 ± 0.13 nM in assay [3]. Further, the “Fold Change of D168A Ki” value in assay [2] is “(33) fold”. Further, in assay [3] (compared to parent compound), the “fold increase in potency towards WT compared to the parent compound” value is 4 fold.
On to `COc1ccc2nc(C(F)(F)F)c(O[C@@H]3C[C@H]4C(=O)N[C@]5(C(=O)NS(=O)(=O)C6(C)CC6)C[C@H]5/C=C\CCCCC[C@H](NC(=O)O[C@@H]5C[C@@H]6C[C@@H]6C5)C(=O)N4C3)nc2c1` [NR04-49, (1R,3R,5S)-Bicyclo[3.1.0]hexan-3-yl ((2R,6S,13aS,14aR,16aS,Z)-2-((7-methoxy-3-(trifluoromethyl)quinoxalin-2-yl)oxy)-14a-(((1-methylcyclopropyl)sulfonyl)carbamoyl)-5,16-dioxo-1,2,3,5,6,7,8,9,10,11,13a,14,14a,15,16,16a-hexadecahydrocyclopropa[e]pyrrolo[1,2-a][1,4]diazacyclopentadecin-6-yl)carbamate], for which the affinity on HCV NS3/4A protease GT3, expressed as Ki, was 170 ± 13 nM.
